# Measurements taken from ChEMBL document CHEMBL3576851, “Bacterial Sliding Clamp Inhibitors that Mimic the Sequential Binding Mechanism of Endogenous Linear Motifs” (J Med Chem, 2015).
# Active and inactive are the calls of the source. The rule behind the calls is not given here.
# Assays:
# [1] = molecular target: T1, Beta sliding clamp (Escherichia coli (strain K12), UniProt P0A988); assay: Inhibition of Escherichia coli DNA sliding clamp protein using N-fluorescein (FAM)-QLDLF-OH tracer by fluorescence polarization assay
# T1 sequence (P0A988 whole entry): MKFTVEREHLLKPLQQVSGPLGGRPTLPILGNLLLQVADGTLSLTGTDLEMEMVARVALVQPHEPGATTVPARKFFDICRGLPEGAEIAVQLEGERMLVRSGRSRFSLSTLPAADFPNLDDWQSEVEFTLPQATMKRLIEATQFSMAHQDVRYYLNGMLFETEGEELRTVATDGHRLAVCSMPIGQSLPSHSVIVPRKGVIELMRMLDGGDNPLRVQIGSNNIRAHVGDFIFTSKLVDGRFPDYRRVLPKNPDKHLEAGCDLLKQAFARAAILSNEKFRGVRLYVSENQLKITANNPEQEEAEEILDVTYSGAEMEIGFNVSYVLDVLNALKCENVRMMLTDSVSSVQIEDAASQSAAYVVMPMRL
# [2] = molecular target: Beta sliding clamp (Escherichia coli (strain K12)) (UniProt P0A988); assay: Inhibition of Escherichia coli DNA sliding clamp protein assessed as reduction in DNA replication at 31 uM in presence of circular ssDNA, RNA primer template, SSB, Pol3-alpha subunit, reconstituted gamma3delta-delta' clamp loader complex by SYBR gold dye based agarose gel electrophoresis method
# Beta sliding clamp (Escherichia coli (strain K12)), sequence (P0A988 whole entry): as above
# [3] = molecular target: T1, Beta sliding clamp; assay: Binding affinity to Escherichia coli DNA sliding clamp protein at 298K by isothermal titration calorimetry
# [4] = molecular target: Beta sliding clamp (Escherichia coli (strain K12)) (UniProt P0A988); assay: Inhibition of Escherichia coli DNA sliding clamp protein assessed as reduction in DNA replication at >125 uM in presence of circular ssDNA, RNA primer template, SSB, Pol3-alpha subunit, reconstituted gamma3delta-delta' clamp loader complex by SYBR gold dye based agarose gel electrophoresis method
IC50 [1],Ki [1],inhibition [2],Kd [3],inhibition [4],Structure (SMILES)
171 µM,95 µM,–,–,–,NC(=O)CNC(=O)Cn1c2c(c3cc(Br)ccc31)CC[C@@H](C(=O)O)C2
347 µM,193 µM,–,–,–,CCNC(=O)Cn1c2c(c3cc(Cl)ccc31)CC[C@@H](C(=O)O)C2
20 µM,11 µM,Active,14 µM,–,O=C(O)CNC(=O)Cn1c2c(c3cc(Br)ccc31)CC[C@@H](C(=O)O)C2
> 1000 µM,–,–,–,–,COC(=O)C1CCc2c([nH]c3ccc(Cl)cc23)C1 (racemic)
285 µM,158 µM,–,–,–,NC(=O)Cn1c2c(c3cc(Br)ccc31)CC[C@H](C(=O)O)C2
328 µM,182 µM,–,–,–,O=C(O)[C@H]1CCc2c([nH]c3ccc(Br)cc23)C1
208 µM,116 µM,–,–,–,O=C(Cn1c2c(c3cc(Br)ccc31)CC[C@@H](C(=O)O)C2)NCC1CCNCC1
64 µM,36 µM,–,–,–,NC(=O)c1ccc(CNC(=O)Cn2c3c(c4cc(Br)ccc42)CC[C@@H](C(=O)O)C3)cc1
48 µM,27 µM,–,–,–,CC(C)C[C@H](NC(=O)Cn1c2c(c3cc(Br)ccc31)CC[C@@H](C(=O)O)C2)C(=O)O
246 µM,137 µM,–,–,Active,NC(=O)Cn1c2c(c3cc(Br)ccc31)CC[C@@H](C(=O)O)C2
888 µM,493 µM,–,–,–,NC(=O)Cn1c2c(c3cc(Cl)ccc31)CC[C@H](C(=O)O)C2
299 µM,166 µM,–,–,–,O=C(O)C1CCc2c([nH]c3ccc(Cl)cc23)C1 (racemic)
> 1000 µM,–,–,–,–,NC(=O)C1CCc2c([nH]c3ccc(Cl)cc23)C1 (racemic)
115 µM,64 µM,–,–,–,CC(C)(C)OC(=O)NCCCC[C@@H](NC(=O)Cn1c2c(c3cc(Br)ccc31)CC[C@@H](C(=O)O)C2)C(=O)O
307 µM,171 µM,–,–,–,NC(=O)CN1CCC(NC(=O)Cn2c3c(c4cc(Br)ccc42)CC[C@@H](C(=O)O)C3)CC1
817 µM,454 µM,–,–,–,O=C(O)[C@@H]1CCc2c([nH]c3ccc(F)cc23)C1
> 1000 µM,–,–,–,–,OCC1CCc2c([nH]c3ccc(Cl)cc23)C1 (racemic)
362 µM,201 µM,–,–,–,NC(=O)Cc1ccc(NC(=O)Cn2c3c(c4cc(Cl)ccc42)CC[C@@H](C(=O)O)C3)cc1
368 µM,204 µM,–,–,Active,NC(=O)Cn1c2c(c3cc(Cl)ccc31)CC[C@@H](C(=O)O)C2
157 µM,87 µM,–,–,Active,O=C(O)[C@@H]1CCc2c([nH]c3ccc(Br)cc23)C1
150 µM,83 µM,–,–,–,CC(C)(C)OC(=O)N1CCC(CNC(=O)Cn2c3c(c4cc(Br)ccc42)CC[C@@H](C(=O)O)C3)CC1
27 µM,15 µM,Active,9 µM,–,O=C(Cn1c2c(c3cc(Br)ccc31)CC[C@@H](C(=O)O)C2)N[C@@H](Cc1ccccc1)C(=O)O
442 µM,246 µM,–,–,–,O=C(O)[C@H]1CCc2c([nH]c3ccc(Cl)cc23)C1
134 µM,74 µM,–,–,Active,O=C(O)[C@@H]1CCc2c([nH]c3ccc(Cl)cc23)C1
30 µM,17 µM,Active,13 µM,–,O=C(Cn1c2c(c3cc(Br)ccc31)CC[C@@H](C(=O)O)C2)N[C@H](Cc1ccccc1)C(=O)O
175 µM,97 µM,–,–,–,O=C(O)[C@@H]1CCc2c([nH]c3ccc(I)cc23)C1
85 µM,47 µM,–,24 µM,–,O=C(O)CNC(=O)Cn1c2c(c3cc(Cl)ccc31)CC[C@@H](C(=O)O)C2
